Experimental data from ChEMBL document CHEMBL5725787, “Fused pyrimidine compound or salt thereof” (2017).

Biological target: Tyrosine-protein kinase BTK (Homo sapiens, UniProt Q06187)
Assay: BTK Inhibitory Activity: With regard to the setting of the conditions for a method for measuring the inhibitory activity of a compound against BTK kinase activity in vitro, it is described in the consumable reagent supplies price list for LabChip (registered trademark) series of PerkinElmer, Inc. that FL-PEPTIDE 2 corresponds to a substrate peptide for the measurement of BTK kinase activity. Therefore, FL-PEPTIDE 2 was used as a substrate. The purified recombinant human BTK protein used in the test was purchased from Carna Biosciences, Inc.With regard to the measurement of the inhibitory activity of the compounds, firstly, the compounds of the present invention were diluted stepwise with dimethyl sulfoxide (DMSO). Subsequently, BTK protein, a substrate peptide (final concentration was 1 μM), magnesium chloride (final concentration was 10 mM), ATP (final concentration was 45 μM), and a DMSO solution of the compounds of the present invention (final concentration of DMSO was 5%) were added to a buffer solution for kinase reaction (20 mM HEPES (pH 7.5), 2 mM dithiotheitol, 0.01% Triton X-100), and after the solution was incubated for 40 minutes at 25° C., a kinase reaction was carried out. The reaction was terminated by adding EDTA thereto in order to obtain a final concentration of 30 mM. […]

Sequence of Tyrosine-protein kinase BTK (Q06187 whole entry): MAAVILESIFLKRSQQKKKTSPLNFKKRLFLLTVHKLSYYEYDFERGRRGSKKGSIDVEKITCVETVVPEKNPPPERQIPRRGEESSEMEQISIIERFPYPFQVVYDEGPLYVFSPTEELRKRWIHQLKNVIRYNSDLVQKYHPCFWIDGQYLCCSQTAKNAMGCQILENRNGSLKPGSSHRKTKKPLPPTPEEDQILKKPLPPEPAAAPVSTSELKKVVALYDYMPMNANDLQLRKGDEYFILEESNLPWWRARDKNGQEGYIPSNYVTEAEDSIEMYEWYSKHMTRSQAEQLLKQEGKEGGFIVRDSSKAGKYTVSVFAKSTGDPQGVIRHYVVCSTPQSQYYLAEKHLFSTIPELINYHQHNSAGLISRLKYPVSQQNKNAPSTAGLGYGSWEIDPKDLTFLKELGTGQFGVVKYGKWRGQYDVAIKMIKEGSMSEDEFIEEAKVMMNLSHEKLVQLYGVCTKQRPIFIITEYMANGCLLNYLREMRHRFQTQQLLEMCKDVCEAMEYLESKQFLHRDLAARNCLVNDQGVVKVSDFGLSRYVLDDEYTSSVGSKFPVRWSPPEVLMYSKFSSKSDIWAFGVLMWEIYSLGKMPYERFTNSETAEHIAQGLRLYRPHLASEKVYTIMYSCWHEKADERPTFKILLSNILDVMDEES

SMILES: C=CC(=O)N1CC[C@@H](n2nc(C(=O)Nc3nc4cc(-c5ccccc5)ccc4o3)c3c(N)ncnc32)C1
- IC50: 0.442 nM
